Data taken from ChEMBL document CHEMBL1909046, “DrugMatrix in vitro pharmacology data”.

Legend:
[1] = DRUGMATRIX: Potassium Channel [KATP] radioligand binding (ligand: [3H] Glyburide); assay type: cell membranes, Membrane; conditions: hit-t15; Not Active = under 50% inhibition at 10 µM
[2] = DRUGMATRIX: GABAA, Muscimol, Central radioligand binding (ligand: [3H] Muscimol); assay type: cell membranes, Rattus norvegicus, Wistar, Brain, Membrane; conditions: Not Active = under 50% inhibition at 10 µM
[3] = biological target: C-C chemokine receptor type 5 (Homo sapiens, UniProt P51681); assay type: cell membranes, Membrane; conditions: hek293; also: in other assays of this panel Not Active means under 50% inhibition at 10 µM
Substance-P receptor = Substance-P receptor (Homo sapiens, UniProt P25103); assay type: cell membranes, CHO, Membrane; conditions: cho; also: in other assays of this panel Not Active means under 50% inhibition at 10 µM
[4] = DRUGMATRIX: Interleukin IL-1 radioligand binding (ligand: [125I] interleukin 1beta); assay type: cell membranes, Membrane; conditions: nih3t3; Not Active = under 50% inhibition at 10 µM
[5] = biological target: Mitogen-activated protein kinase 3 (Homo sapiens, UniProt P27361); assay: DRUGMATRIX: Protein Serine/Threonine Kinase, ERK1 enzyme inhibition (substrate: Myelin Basic Protein); design: species or system Escherichia coli; conditions: Not Active = under 50% inhibition at 10 µM
Calcitonin receptor = biological target: T1, Calcitonin receptor (Homo sapiens, UniProt P30988); assay type: cell membranes, Membrane; conditions: t47d; also: in other assays of this panel Not Active means under 50% inhibition at 10 µM
T1 sequence (P30988 whole entry): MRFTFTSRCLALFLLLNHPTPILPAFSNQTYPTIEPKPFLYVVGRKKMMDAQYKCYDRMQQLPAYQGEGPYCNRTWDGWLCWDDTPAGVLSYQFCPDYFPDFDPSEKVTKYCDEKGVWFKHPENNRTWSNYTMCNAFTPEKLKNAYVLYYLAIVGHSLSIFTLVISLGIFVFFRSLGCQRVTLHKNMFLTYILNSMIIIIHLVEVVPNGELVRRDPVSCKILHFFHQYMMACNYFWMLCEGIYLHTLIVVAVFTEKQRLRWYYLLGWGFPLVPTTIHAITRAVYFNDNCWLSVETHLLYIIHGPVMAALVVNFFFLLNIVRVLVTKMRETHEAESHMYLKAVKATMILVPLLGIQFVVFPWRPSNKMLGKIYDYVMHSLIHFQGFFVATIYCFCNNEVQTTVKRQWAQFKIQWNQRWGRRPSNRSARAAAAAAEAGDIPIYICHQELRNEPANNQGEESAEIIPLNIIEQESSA

[6] = biological target: T2, Angiotensin-converting enzyme (Oryctolagus cuniculus, UniProt P12822); assay: biochemical; assay type: tissue-based, Lung;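 also: enzymatic inhibition of angiotensin-converting enzyme measured with FAPGG as the substrate; in other assays of this panel Not Active means under 50% inhibition at 10 µM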
T2 sequence (P12822 whole entry): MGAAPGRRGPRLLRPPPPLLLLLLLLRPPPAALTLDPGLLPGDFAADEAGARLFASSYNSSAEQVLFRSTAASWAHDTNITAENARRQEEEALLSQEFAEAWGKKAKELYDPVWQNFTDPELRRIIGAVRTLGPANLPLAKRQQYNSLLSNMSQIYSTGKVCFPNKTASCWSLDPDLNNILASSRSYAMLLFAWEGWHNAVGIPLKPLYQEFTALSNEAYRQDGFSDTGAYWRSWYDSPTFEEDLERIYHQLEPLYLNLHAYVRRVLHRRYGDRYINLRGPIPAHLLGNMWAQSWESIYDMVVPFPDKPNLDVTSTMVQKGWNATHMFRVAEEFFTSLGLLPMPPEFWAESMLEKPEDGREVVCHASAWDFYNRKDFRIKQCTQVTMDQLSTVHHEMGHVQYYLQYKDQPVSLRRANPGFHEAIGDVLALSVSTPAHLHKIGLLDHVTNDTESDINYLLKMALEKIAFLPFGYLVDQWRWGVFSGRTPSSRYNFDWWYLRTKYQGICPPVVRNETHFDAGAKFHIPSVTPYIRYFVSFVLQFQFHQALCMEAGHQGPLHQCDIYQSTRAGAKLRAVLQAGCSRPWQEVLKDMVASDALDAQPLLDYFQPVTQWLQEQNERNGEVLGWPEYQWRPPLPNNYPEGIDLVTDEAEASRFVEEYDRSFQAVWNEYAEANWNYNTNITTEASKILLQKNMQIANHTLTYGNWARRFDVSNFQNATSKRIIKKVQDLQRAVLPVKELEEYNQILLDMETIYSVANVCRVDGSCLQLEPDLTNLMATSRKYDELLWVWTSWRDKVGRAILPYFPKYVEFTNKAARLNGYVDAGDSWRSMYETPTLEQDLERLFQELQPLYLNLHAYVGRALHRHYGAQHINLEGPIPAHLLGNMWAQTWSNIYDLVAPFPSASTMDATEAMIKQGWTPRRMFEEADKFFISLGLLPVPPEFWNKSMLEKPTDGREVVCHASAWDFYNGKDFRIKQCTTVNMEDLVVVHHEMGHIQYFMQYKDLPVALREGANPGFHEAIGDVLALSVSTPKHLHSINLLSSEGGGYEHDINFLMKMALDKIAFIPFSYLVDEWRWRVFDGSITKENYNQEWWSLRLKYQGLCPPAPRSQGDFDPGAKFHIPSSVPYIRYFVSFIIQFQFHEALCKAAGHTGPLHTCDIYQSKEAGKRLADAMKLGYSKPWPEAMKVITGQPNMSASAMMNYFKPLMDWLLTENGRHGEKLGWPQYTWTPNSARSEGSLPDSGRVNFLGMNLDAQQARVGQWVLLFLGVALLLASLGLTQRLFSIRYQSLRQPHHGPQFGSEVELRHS

[7] = DRUGMATRIX: Nicotinic Acetylcholine radioligand binding (ligand: [125I] Epibatidine); assay type: cell membranes, Membrane; conditions: imr-32; Not Active = under 50% inhibition at 10 µM
Substance-K receptor = biological target: T3, Substance-K receptor (Homo sapiens, UniProt P21452); assay type: cell membranes, CHO, Membrane; conditions: cho; also: in other assays of this panel Not Active means under 50% inhibition at 10 µM
T3 sequence (P21452 whole entry): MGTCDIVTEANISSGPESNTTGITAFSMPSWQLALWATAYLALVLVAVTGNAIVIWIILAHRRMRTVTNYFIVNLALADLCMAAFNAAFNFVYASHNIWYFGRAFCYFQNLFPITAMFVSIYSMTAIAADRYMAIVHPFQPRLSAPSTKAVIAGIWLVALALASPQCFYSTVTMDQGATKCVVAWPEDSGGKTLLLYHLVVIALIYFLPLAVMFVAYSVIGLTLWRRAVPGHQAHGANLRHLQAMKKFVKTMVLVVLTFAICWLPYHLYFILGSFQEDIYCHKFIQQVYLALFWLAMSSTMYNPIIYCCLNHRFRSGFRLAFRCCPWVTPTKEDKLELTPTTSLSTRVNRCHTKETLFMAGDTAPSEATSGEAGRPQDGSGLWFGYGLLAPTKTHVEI

Glycine receptor = Glycine receptor (Rattus norvegicus, UniProt P22771+P24524+P07727+P20781); assay type: cell membranes, Wistar, Spinal cord, Membrane; also: in other assays of this panel Not Active means under 50% inhibition at 10 µM
Adenosine receptor A2a = Adenosine receptor A2a (Homo sapiens, UniProt P29274); assay: DRUGMATRIX: Adenosine A2A radioligand binding (ligand: […]); assay type: cell membranes, HEK293, Membrane; conditions: hek293; Not Active = under 50% inhibition at 10 µM
Sequence of Adenosine receptor A2a (P29274 whole entry): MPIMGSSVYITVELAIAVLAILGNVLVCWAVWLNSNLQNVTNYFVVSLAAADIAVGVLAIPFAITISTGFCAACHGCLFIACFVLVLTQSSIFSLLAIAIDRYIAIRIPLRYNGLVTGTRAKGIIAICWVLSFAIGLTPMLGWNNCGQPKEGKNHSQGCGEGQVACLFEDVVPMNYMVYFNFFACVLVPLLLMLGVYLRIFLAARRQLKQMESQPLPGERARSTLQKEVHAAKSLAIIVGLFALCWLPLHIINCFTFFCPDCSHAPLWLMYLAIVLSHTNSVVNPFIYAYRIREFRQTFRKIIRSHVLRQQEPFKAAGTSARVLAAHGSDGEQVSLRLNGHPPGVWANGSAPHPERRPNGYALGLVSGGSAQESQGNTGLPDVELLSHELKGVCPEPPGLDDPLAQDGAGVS

Sequence of Mitogen-activated protein kinase 3 (P27361 whole entry): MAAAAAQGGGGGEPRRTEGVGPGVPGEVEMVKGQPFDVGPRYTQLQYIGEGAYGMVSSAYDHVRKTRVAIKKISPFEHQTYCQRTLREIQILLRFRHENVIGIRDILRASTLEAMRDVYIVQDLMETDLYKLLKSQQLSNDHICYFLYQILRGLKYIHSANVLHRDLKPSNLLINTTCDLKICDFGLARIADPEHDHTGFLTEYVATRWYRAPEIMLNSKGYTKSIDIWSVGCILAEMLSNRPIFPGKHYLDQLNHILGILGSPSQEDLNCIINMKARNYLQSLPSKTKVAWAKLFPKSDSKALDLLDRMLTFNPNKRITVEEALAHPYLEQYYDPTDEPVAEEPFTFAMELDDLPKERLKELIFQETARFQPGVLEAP
Sequence of C-C chemokine receptor type 5 (P51681 whole entry): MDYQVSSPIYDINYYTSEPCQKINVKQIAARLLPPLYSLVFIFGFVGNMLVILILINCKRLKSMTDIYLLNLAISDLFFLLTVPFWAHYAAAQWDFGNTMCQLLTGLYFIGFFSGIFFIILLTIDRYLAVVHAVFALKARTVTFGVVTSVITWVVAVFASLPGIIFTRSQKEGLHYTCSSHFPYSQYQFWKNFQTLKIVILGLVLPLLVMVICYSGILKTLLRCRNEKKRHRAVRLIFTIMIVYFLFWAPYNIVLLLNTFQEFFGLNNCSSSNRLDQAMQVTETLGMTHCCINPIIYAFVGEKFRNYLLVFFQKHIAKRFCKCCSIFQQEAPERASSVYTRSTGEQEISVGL
Sequence of Substance-P receptor (P25103 whole entry): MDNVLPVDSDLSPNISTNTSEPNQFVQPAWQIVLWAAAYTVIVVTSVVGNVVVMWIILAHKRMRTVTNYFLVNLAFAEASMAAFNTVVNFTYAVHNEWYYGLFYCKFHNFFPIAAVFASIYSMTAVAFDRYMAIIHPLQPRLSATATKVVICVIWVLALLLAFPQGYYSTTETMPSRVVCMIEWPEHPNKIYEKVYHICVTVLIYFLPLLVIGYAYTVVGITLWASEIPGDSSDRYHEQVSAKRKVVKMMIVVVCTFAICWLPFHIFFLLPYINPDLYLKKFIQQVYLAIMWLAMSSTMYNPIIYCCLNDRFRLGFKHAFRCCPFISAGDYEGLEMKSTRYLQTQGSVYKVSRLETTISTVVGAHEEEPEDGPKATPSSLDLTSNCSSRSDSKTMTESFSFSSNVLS

CC1(C)[C@@H](O[C@H]2O[C@H](C(=O)O)[C@@H](O)[C@H](O)[C@H]2O[C@@H]2O[C@H](C(=O)O)[C@@H](O)[C@H](O)[C@H]2O)CC[C@]2(C)[C@H]3C(=O)C=C4[C@@H]5C[C@@](C)(C(=O)O)CC[C@]5(C)CC[C@@]4(C)[C@]3(C)CC[C@@H]12 [GLYCYRRHIZIN]
Not Active: IC50 [1] | Ki [1] | IC50 [2] | Ki [2] | IC50 [3] | IC50 (Substance-P receptor) | IC50 [4] | Ki [4] | IC50 [5] | IC50 (Calcitonin receptor) | IC50 [6] | IC50 [7] | Ki [7] | IC50 (Substance-K receptor) | IC50 (Glycine receptor) | IC50 (Adenosine receptor A2a)

NCC[C@H](O)C(=O)N[C@@H]1C[C@H](N)[C@@H](O[C@H]2O[C@H](CN)[C@@H](O)[C@H](O)[C@H]2O)[C@H](O)[C@H]1O[C@H]1O[C@H](CO)[C@@H](O)[C@H](N)[C@H]1O [AMIKACIN]
Not Active: IC50 [1] | Ki [1] | IC50 [2] | Ki [2] | IC50 [3] | IC50 (Substance-P receptor) | IC50 [4] | Ki [4] | IC50 [5] | IC50 (Calcitonin receptor) | IC50 [6] | IC50 [7] | Ki [7] | IC50 (Substance-K receptor) | IC50 (Glycine receptor) | IC50 (Adenosine receptor A2a)

Cc1[nH]cnc1CN1CCc2c(c3ccccc3n2C)C1=O [ALOSETRON]
Not Active: IC50 [1] | Ki [1] | IC50 [2] | Ki [2] | IC50 [3] | IC50 (Substance-P receptor) | IC50 [4] | Ki [4] | IC50 [5] | IC50 (Calcitonin receptor) | IC50 [6] | IC50 [7] | Ki [7] | IC50 (Substance-K receptor) | IC50 (Glycine receptor) | IC50 (Adenosine receptor A2a)

CN1C[C@H](C(=O)N[C@]2(C)O[C@@]3(O)[C@@H]4CCCN4C(=O)[C@H](Cc4ccccc4)N3C2=O)C=C2c3cccc4[nH]cc(c34)C[C@H]21 [ERGOTAMINE]
Not Active: IC50 [1] | Ki [1] | IC50 [2] | Ki [2] | IC50 [3] | IC50 (Substance-P receptor) | IC50 [4] | Ki [4] | IC50 [5] | IC50 (Calcitonin receptor) | IC50 [6] | IC50 [7] | Ki [7] | IC50 (Substance-K receptor) | IC50 (Glycine receptor) | IC50 (Adenosine receptor A2a)

CN(C)[C@@H]1C(O)=C(C(N)=O)C(=O)[C@@]2(O)C(O)=C3C(=O)c4c(O)cccc4[C@@](C)(O)[C@H]3[C@H](O)[C@@H]12 [OXYTETRACYCLINE]
Not Active: IC50 [1] | Ki [1] | IC50 [2] | Ki [2] | IC50 [3] | IC50 (Substance-P receptor) | IC50 [4] | Ki [4] | IC50 [5] | IC50 (Calcitonin receptor) | IC50 [6] | IC50 [7] | Ki [7] | IC50 (Substance-K receptor) | IC50 (Glycine receptor) | IC50 (Adenosine receptor A2a)

COc1c(N2CCNC(C)C2)c(F)cc2c(=O)c(C(=O)O)cn(C3CC3)c12 (stereo unspecified) [GATIFLOXACIN]
Not Active: IC50 [1] | Ki [1] | IC50 [2] | Ki [2] | IC50 [3] | IC50 (Substance-P receptor) | IC50 [4] | Ki [4] | IC50 [5] | IC50 (Calcitonin receptor) | IC50 [6] | IC50 [7] | Ki [7] | IC50 (Substance-K receptor) | IC50 (Glycine receptor) | IC50 (Adenosine receptor A2a)
